Measured values published in ChEMBL document CHEMBL3044663, “Synthesis and antimicrobial activities of novel bisacridine-1,8-dione derivatives” (2011).
The source made the active and inactive calls. No cut-off for these calls is given here.

Experiments:
Format in all cases: functional
Pseudomonas aeruginosa = assay: Antibacterial activity against Pseudomonas aeruginosa ATCC 27853 after 24 hr by disk diffusion method
Salmonella = assay: Antibacterial activity against Salmonella 21.3 after 24 hr by disk diffusion method
Bacillus subtilis = assay: Antibacterial activity against Bacillus subtilis RSKK 240 after 24 hr by disk diffusion method
Staphylococcus aureus = assay: Antibacterial activity against Staphylococcus aureus ATCC 25923 after 24 hr by disk diffusion method
Saccharomyces cerevisiae = assay: Antifungal activity against Saccharomyces cerevisiae TP (3-2) after 24 hr by disk diffusion method
Shigella sonnei = assay: Antibacterial activity against Shigella sonnei RSKK 877 after 24 hr by disk diffusion method
Bacillus cereus = assay: Antibacterial activity against Bacillus cereus RSKK 863 after 24 hr by disk diffusion method
[1] = system: Staphylococcus epidermidis; assay: Antibacterial activity against Staphylococcus epidermidis Mu 30 after 24 hr by disk diffusion method
Escherichia coli = assay: Antibacterial activity against Escherichia coli ATCC 35218 after 24 hr by disk diffusion method
Candida albicans = assay: Antifungal activity against Candida albicans 16231 after 24 hr by disk diffusion method
Note: test concentration or dose not given here.

Compound | diameter of the inhibition zone (DIZ) (Pseudomonas aeruginosa) [mm] | diameter of the inhibition zone (DIZ) (Salmonella) [mm] | diameter of the inhibition zone (DIZ) (Bacillus subtilis) | diameter of the inhibition zone (DIZ) (Staphylococcus aureus) [mm] | diameter of the inhibition zone (DIZ) (Saccharomyces cerevisiae) [mm] | diameter of the inhibition zone (DIZ) (Shigella sonnei) [mm] | diameter of the inhibition zone (DIZ) (Bacillus cereus) | diameter of the inhibition zone (DIZ) [1] | diameter of the inhibition zone (DIZ) (Escherichia coli) [mm] | diameter of the inhibition zone (DIZ) (Candida albicans) [mm]
COc1ccccc1N1C2=C(C(=O)CC(C)(C)C2)C(c2cccc(C3C4=C(CC(C)(C)CC4=O)N(c4ccccc4OC)C4=C3C(=O)CC(C)(C)C4)c2)C2=C1CC(C)(C)CC2=O | 10 | 8 | 8 mm | 9 | 14 | 12 | 13 mm | 13 mm | 14 | 15
N#Cc1ccccc1N1C2=C(C(=O)CCC2)C(c2cccc(C3C4=C(CCCC4=O)N(c4ccccc4C#N)C4=C3C(=O)CCC4)c2)C2=C1CCCC2=O | 14 | 11 | inactive | 10 | 20 | 10 | inactive | 10 mm | 8 | 13
N#Cc1cccc(N2C3=C(C(=O)CCC3)C(c3cccc(C4C5=C(CCCC5=O)N(c5cccc(C#N)c5)C5=C4C(=O)CCC5)c3)C3=C2CCCC3=O)c1 | 10 | 10 | inactive | 9 | 17 | 12 | inactive | inactive | 8 | 27
